Experimental findings from patent publication US20230322771A1, “HETEROCYCLIC GLP-1 AGONISTS” (Gasherbrum Bio, Inc., priority 2020, published 2023) are described below.

This experiment has as its target GLP-1 Receptor (Homo sapiens, UniProt P43220). Put plainly: GLP-1R agonist cAMP stimulation assay (HEK293/GLP1R/CRE-LUC cells, HTRF cAMP dynamic 2 kit). It is filed as cell-based. To be noted: HEK293/CRE-Luc cell line (HDB) stably expressing GLP-1 Receptor; 30 min incubation at 37° C.; read-out: GLP1R cAMP Stimulation DR: EC50 (nM) [Species: Human, Assay Cell Line: HDB]. The method, then: Activation of GLP-1 receptor is known to stimulate cyclic AMP (cAMP) production in cells which indicates primary coupling to the Gαs subunit of the G protein heterotrimeric complex.
To optimize functional activity directed toward Gαs coupling, a HEK293/CRE-Luc cell line developed by HDB stably expressing the GLP-1 Receptor was used. 200× concentration of compound working solutions were prepared (Agilent Technologies Bravo) with ½ log serial dilution in 384-well Echo LDV plate (Labcyte, Cat #LP-0200). 50 nL/well 200× concentration of compound working solutions were moved to 384-well white low volume plate (Greiner, Cat #784075) using Labcyte ECHO550. 1×10^5 cells/mL HEK293/GLP1R/CRE-LUC(HD Biosciences) cell suspensions prepared with assay buffer[DPBS containing 0.5 mM IBMX(Sigma, Cat #15879) and 0.1% BSA(GENVIEW, Cat #FA016-100 g)], 10 uL cell suspensions were added to each well of previous generated assay plate which already contains 50 nl compound at 200× concentration using ThermoFisher Multidrop Combi(1000 cells/well). Seal the plate and incubate at 37° C. with 5% CO2 for 30 min.
After incubation the cAMP assay signal was generated using cAMP dynamic 2 Kit (Cisbio). 5 μL cAMP-d2 working solution was added to each well, followed with 5 μL Anti-cAMP antibody-cryptate working solution added to each well using ThermoFisher Multidrop Combi. Incubate at room temperature for 1 hour protected from light. Read the fluorescence at 665 and 615 nm with Reader PerkinElmer EnVision.
% Activity=100%×(mean RLU of test sample−mean RLU of vehicle control)/(mean RLU of MAX control−mean RLU of vehicle control))
For orientation: TR-FRET usually uses a lanthanide donor and a delayed reading to cut background.

Chain of GLP-1 Receptor (P43220 24-463): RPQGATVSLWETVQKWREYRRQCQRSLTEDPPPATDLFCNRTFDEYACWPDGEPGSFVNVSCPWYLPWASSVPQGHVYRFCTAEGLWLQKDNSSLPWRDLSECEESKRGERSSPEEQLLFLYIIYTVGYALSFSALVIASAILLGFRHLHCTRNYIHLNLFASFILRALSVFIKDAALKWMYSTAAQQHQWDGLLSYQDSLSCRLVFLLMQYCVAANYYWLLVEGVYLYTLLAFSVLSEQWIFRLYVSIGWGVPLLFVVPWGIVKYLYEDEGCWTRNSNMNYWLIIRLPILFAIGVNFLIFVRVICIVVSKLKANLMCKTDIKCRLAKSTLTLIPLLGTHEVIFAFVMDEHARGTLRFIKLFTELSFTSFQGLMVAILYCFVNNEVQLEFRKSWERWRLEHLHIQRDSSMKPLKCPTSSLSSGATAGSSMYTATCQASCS

Consider `Cc1cc(-n2nc3c(c2-n2ccn(-c4cccc(N5CCCS5(=O)=O)c4)c2=O)[C@H](C)N(C(=O)c2cc4cc(C5CCOCC5)ccc4n2[C@@]2(c4noc(=O)[nH]4)C[C@@H]2C)CC3)cc(C)c1F` [Compound 106a, 3-((1S,2S)-1-(2-((S)-3-(3-(3-(1,1-dioxidoisothiazolidin-2-yl)phenyl)-2-oxo-2,3-dihydro-1H-imidazol-1-yl)-2-(4-fluoro-3,5-dimethylphenyl)-4-methyl-4,5,6,7-tetrahydro-2H-pyrazolo[4,3-c]pyridine-5-carbonyl)-5-(tetrahydro-2H-pyran-4-yl)-1H-indol-1-yl)-2-methylcyclopropyl)-1,2,4-oxadiazol-5(4H)-one], for which the EC50 (commonly the concentration giving half of the maximal effect) amounted to 0.7 nM.
